Assay results from patent US20090162425A1, “METHODS AND COMPOSITIONS FOR INHIBITING UNDESIRABLE CELLULAR PROLIFERATION BY TARGETED LIPOSOME DELIVERY OF ACTIVE AGENTS” (University of Tennessee Research Foundation, priority 2007, published 2009).

Key:
avidin = avidin (Gallus gallus, UniProt P02701); conditions: avidin-biotin interaction; cited from earlier work
[1] = test system: C6 GFP flank glioma tumors; conditions: 2 mg/Kg paclitaxel administered systemically, flank model
Procedure: Tumor growth was measured on every 3rd day with a vernier caliper, and tumor volume was measured using the formula
Injections were made using the retro orbital route of administration. For monitoring changes in tumor volume, tumor growth was measured every 3rd day with a vernier caliper, and tumor volume was measured as described in previous section.
The tumor growth delay was defined as the time required for a treated tumor to reach a specific volume (130 mm^3) minus the time for the untreated tumor to reach that same volume.

[2] = test system: C6 GFP intracranial glioma tumors; conditions: 2 mg/Kg paclitaxel administered systemically, intracranial model
Procedure: The animals were monitored visually on a daily basis and weights were measured on every 3rd day until they lost 10% of their body weight.
After 5 days of tumor cell inoculation, animals were assigned randomly to 3 groups (n=3-4 per group). […] The animals were then sacrificed on the 9th day of treatment and the brains were isolated.
Tumor areas were measured METAMORPH® software after taking optical images with a CCD camera with GFP filter.

[3] = in vivo; cited from earlier work
[4] = cited from earlier work

Sequence of avidin (P02701 25-152): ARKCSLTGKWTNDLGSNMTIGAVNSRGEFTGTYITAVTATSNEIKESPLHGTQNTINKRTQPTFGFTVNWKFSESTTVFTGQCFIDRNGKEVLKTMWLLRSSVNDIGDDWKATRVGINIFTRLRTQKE

Compound	dissociation half-life (avidin)	gross deleterious effects (clinical monitoring and daily weights) [1]	gross deleterious effects (clinical monitoring and daily weights) [2]	drug bound to plasma proteins [3]	terminal half-life (mean) [3] [h]	terminal half-life (range) [3] [h]	log P [4]
O=C(O)CCCC[C@@H]1SC[C@@H]2NC(=O)N[C@@H]21 [biotin]	about 89 days						
CC(=O)O[C@H]1C(=O)[C@@]2(C)[C@H]([C@H](OC(=O)c3ccccc3)[C@]3(O)C[C@H](OC(=O)[C@H](O)[C@@H](NC(=O)c4ccccc4)c4ccccc4)C(C)=C1C3(C)C)[C@]1(OC(C)=O)CO[C@@H]1C[C@@H]2O [paclitaxel]		no gross deleterious effects	no gross deleterious effects	More than 90%	5	1.3 to 8.6	3.96
